The structures appear in SMILES notation.

The target in assay [1] is T1, mouse TRPC4β (Mus musculus, UniProt Q9QUQ5).
T1 construct: expressed in transfected cells; host or cells: HEK293 (ATCC CRL 1573), stably transfected, tetracycline-induced
T1 sequence (Q9QUQ5 1-890 isoform Q9QUQ5-2): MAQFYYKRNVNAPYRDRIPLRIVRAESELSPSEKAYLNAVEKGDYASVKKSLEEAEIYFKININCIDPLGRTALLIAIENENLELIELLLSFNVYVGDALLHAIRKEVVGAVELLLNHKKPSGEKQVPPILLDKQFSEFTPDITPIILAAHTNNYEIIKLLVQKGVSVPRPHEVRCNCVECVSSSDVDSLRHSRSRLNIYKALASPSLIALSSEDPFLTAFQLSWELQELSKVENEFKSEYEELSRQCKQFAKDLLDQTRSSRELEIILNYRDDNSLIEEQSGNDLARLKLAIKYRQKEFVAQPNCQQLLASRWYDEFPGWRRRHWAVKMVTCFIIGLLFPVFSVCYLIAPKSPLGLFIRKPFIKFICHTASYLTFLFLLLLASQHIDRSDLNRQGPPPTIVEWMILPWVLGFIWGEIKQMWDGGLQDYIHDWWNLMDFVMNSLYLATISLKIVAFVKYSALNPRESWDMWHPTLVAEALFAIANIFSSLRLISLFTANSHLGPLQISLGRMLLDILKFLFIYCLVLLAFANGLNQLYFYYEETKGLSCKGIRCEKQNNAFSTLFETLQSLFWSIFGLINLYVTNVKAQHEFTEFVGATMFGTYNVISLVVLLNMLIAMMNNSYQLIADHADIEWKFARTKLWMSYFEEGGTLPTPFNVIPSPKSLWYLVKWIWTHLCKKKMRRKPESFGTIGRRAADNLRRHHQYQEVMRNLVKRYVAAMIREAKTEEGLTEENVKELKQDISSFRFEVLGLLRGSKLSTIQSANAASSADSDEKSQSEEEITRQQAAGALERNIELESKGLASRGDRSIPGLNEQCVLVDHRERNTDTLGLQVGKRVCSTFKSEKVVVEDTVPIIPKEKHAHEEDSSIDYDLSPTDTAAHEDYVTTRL
The experiment in a line: FLIPR Ca2+ influx assay (Fluo-4) with 365/447 nm photoswitching, HEK293 stably expressing mouse TRPC4β. The format is cell-based. To be noted: for EC50: Z* = mostly-Z PSS under 365 nm LED, Fluo-4-loaded cells, read-out: Agonistic EC50 (365 nm) TRPC4. The source says:
We initially screened for the photoswitchability of activity in cells using a fluorometric imaging plate reader (FLIPR) calcium flux assay, with HEK293 cells stably expressing mouse TRPC4β or mouse TRPC5. Note, however, that the parallel-throughput FLIPR setup is limited to use fixed light-emitting diodes at 365 nm (good Z) and 447 nm (suboptimal E), which, combined with the slowness of the onset and recovery of the fluorescence readout for calcium, causes the FLIPR results to underestimate the reagents’ true speed, degree and completion of TRPC chromocontrol (shown later). […]
3 Cultured Cell Lines (primarily for Fig. 1 and Fig. 2)
3.1 FLIPR Ca2+ influx assay in cell suspensions.
We initially screened for photoswitchability of activity in cells, using a fluorometric imaging plate reader (FLIPR) calcium flux assay, with human embryonic kidney cell line HEK293 stably transfected to express mouse TRPC4β- or TRPC5-CFP fusion protein (HEKmTRPC4β-CFP / HEKmTRPC5-CFP, HEK293 obtained from ATCC CRL 1573). The FLIPR setup provides high-content data, but it is limited to using LED wavelengths of 365 nm (best-Z) and 447 nm (suboptimal-E), while imaging at 470 nm excitation (Fluo-4 AM as Ca2+ indicator; this imaging light counteracts both PSSs). Therefore, we expected the FLIPR results to under-estimate the true chromocontrol power accessible to the reagents.
Cells were grown to 70%-90% confluency in a 75-cm2 culture flask, trypsinised, washed and resuspended in BSA-containing (0.1%) HBS, and supplemented with 3 µM Fluo-4/AM. Stably TRPC-transfected cells were induced with tetracycline 24 h prior to the experiments.42,43 After incubation at 37°C for 30 min [Fluo-4 loading], cells were again washed, resuspended, and dispensed (40 µl/well) into black pigmented, clear-bottom 384-well plates (Greiner µ-clear). To image the Fluo-4 fluorescence during the application and photoswitching of test compounds, these plates were first mounted to a Tecan Fluent 480 (Tecan, Männedorf, Switzerland) liquid handling device, equipped with a 384-tip multichannel arm and a gripper arm. A custom-made plate-imaging device was used for photoswitching during fluorescence imaging, which features LED-based excitation modules (365 nm and 447 nm used here for photoswitching, and 470 nm used here for Fluo-4 readout) projected onto the bottom of the microwell plate, with a cooled scientific complementary metal oxide sensor (sCMOS) camera (Zyla 5.5, Andor, Belfast, UK) equipped with a Nokton 42.5 mm f/0.95 (Voigtlaender, Fürth, Germany) for detection. The LEDs were controlled with an Arduino device and constant current drivers (1 A for 365 and 470 nm LEDs; 3 A for 447 nm LED); detection was under the control of Micromanager 2.0 software. Compounds were serially diluted and applied to the Fluo-4-loaded cell suspensions inside this custom plate-imaging device, then fluorescence intensities (under 470 nm excitation) were continuously recorded during programmed illuminations e.g. with alternating 365 nm and 447 nm phases.
Concentration-response curves for the Z-isomers (channel activation) were then constructed from the maximal signals during 365 nm phases, after a suitable number of "priming" cycles to allow the system to reach stable performance (Supplementary Fig. 13).
All experiments were conducted as a minimum of 3 independent experiments with each experiment averaging data in technical duplicates.
Cellular TRPC4 photoswitching: HEK cell Ca2+ influx photomodulation […]
Supplementary Figure 12. […]

Assay [2] deals with Th+ neurons of Th-GCaMP6f (WT) mice. Briefly: GCaMP6f Ca2+ imaging of Th+ neurons in arcuate nucleus brain slices with 355 nm photoswitching, Th-GCaMP6f (WT) mice. The note with it: for EC50: Mus musculus, Neuron, read-out: EC50 of Z-isomer-induced Ca2+ responses (ΔAUC) in Th+ neurons, WT.
Source text: slices through the ARC of mice expressing the Ca2+ indicator GCaMP6f in Th+ neurons (Fig. 4),
we investigated (1) whether Ca2+ responses at endogenous TRPC5 expression levels can be
TRPC5 expression using TRPC5-deficient brain slices, (3) whether a dose dependence could be
detected, and (4) whether there are properties in channel activity that can be distinguished between
concentration-response measurements (Fig. 5d).

As usually defined, the EC50 is the concentration that produces a half-maximal response. For `Cn1c(=O)n(CCCO)c(=O)c2c1nc(Oc1ccc(N=Nc3ccccc3)c(OC(F)(F)F)c1)n2Cc1ccc(Cl)cc1` [AzPico], the EC50 in assay [1] was 3 nM. Moreover, the “Cells with sustained high Ca2+ signal lasting up to 3 min (count)” value in assay [2] (500 nM, 355 nm pulse) was 13 out of 31.

On to `Cn1c(=O)n(CCCO)c(=O)c2c1nc(Oc1ccc(/N=N\c3ccccc3)c(Cl)c1)n2Cc1ccc(Cl)cc1` [Z*-AzHC], for which the results for the EC50 in assay [1] and in assay [2] were over 1000 nM and 130 ± 100 nM, respectively. Also, the “Activity of Z isomer on TRPC4” value in assay [1] (into the micromolar range, 365 nm) is “completely inactive”.

Take `Cn1c(=O)n(CCCO)c(=O)c2c1nc(Oc1ccc(N=Nc3ccccc3)c(Cl)c1)n2Cc1ccc(Cl)cc1` [AzHC]: in assay [2] (500 nM, 355 nm pulse), the “Cells with sustained high Ca2+ signal lasting up to 3 min” value was determined as 42% and the “Cells with sustained high Ca2+ signal lasting up to 3 min (count)” value is 14 of 33. For the same compound, the EC50 in assay [2] amounted to 130 ± 100 nM.

Consider `Cn1c(=O)n(CCCO)c(=O)c2c1nc(Oc1ccc(/N=N/c3ccccc3)c(OC(F)(F)F)c1)n2Cc1ccc(Cl)cc1` [E-AzPico], for which the “Effect of E isomer alone on TRPC4” value in assay [1] (12 pM to […], before 365-nm illumination) is recorded as “no effect”.

The values above are taken from article PMC12858405, “Ideal efficacy photoswitching for chromocontrol of TRPC4/5 channel functions in live tissues” (Nature Chemical Biology, 2026).
